Data reported in patent US8022064B2, “Phenylpentadienoyl derivatives and their use as PAR 1 antagonists” (Pierre Fabre Medicament, priority 2006, dated 2011).

Biological target: T1, PAR-1 receptor (Cricetulus griseus, UniProt A0A8C2QJ57)
T1 construct: Chinese hamster ovarian (CHO) cells constituently express PAR-1 receptor; endogenous in cells; host or cells: CHO cells
T1 sequence (A0A8C2QJ57 22-428): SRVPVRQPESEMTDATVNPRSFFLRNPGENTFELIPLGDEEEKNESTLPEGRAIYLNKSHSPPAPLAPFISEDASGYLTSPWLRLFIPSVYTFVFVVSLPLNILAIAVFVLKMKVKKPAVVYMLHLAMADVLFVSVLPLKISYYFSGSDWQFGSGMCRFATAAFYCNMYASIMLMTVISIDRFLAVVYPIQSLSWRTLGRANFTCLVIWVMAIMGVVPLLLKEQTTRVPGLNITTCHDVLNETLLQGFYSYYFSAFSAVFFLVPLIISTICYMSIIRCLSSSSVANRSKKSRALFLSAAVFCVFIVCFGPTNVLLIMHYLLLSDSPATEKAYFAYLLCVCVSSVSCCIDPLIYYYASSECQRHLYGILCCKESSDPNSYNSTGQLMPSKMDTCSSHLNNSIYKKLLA
Assay: Calcium release (FLIPR) antagonism of SFLLR-activated PAR-1 in CHO cells
Type: cell-based, Chinese hamster
Details: SFLLR agonist, Schild method from EC50 shifts at three concentrations, read-out: pA2 (converted)
Method: In a variety of cell types, activation of PAR-1 receptors by the SFLLR peptide (a selective PAR-1 agonist) triggers an intracellular signal cascade leading to the release of calcium by the endoplasmic reticulum. Chinese hamster ovarian (CHO) cells constituently express PAR-1 receptor. In this cell line, the release of calcium consecutive to receptor activation by SFLLR is measured by a fluorometry technique (fluorometric imaging plate reader, or FLIPR) using a selective probe for calcium (Fluo-3AM). The emission of fluorescence is pharmacologically proportional to the efficiency of the PAR-1 agonist and to its concentration.
Culture medium: Ham's F-12 (Ham, R. G., Proc. Nat. Acad. Sci. 1965, 53: 288) supplemented with 10% fetal calf serum and […].
Fluorescent probe: Fluo-3AM (4 μM; Teflabs, Austin, Tex., USA)
Agonist: SFLLR-NH2 (Serine, phenylalanine, leucine, leucine, arginine).
Methods: CHO cells are inoculated in 96-well plates (60,000 cells per well) in the presence of 200 μl of culture medium for 24 hours. The cells are incubated with the calcium fluorescent probe for 1 hour at 37° C. The cells are then washed 10 minutes before the signal is measured. PAR-1 antagonist is then injected (0.01 μM to 10 μM). The plates are placed in the FLIPR (Molecular Devices, UK) to measure calcium fluorescence at two wavelengths (488 nm and 540 nm: Sullivan et al., Calcium Signaling Protocols 1999, 125-136). Measurements are taken for 5 min before the antagonist is added and for 10 min following its administration. Maximum fluorescence minus baseline fluorescence is measured in 4 different wells. The test is carried out in duplicate. Under these conditions, the derivatives of the present invention were identified as PAR-1 receptor antagonists (antagonism >60% of the calcium signal at 10 μM). The dose-response curves (0.01 μM to 32 μM) obtained with the SFLLR agonist allowed determination of the effective concentration inducing 50% of the maximum effect (EC50). The strengths (pA2) of some of the PAR-1 antagonists described in the present invention were calculated using the method of Arunlakshana and Schild (Brit. J. Pharmacol., 1959, 14: 48-58) from the EC50 shifts observed at three concentrations.

| Kb | SMILES |
| --- | --- |
| 77.6 nM | O=C(C=CC=Cc1ccccc1[N+](=O)[O-])N1CCN(c2ccccn2)CC1 [Example 21, 5-(2-Nitro-phenyl)-1-(4-pyridin-2-yl-piperazin-1-yl)-penta-2,4-dien-1-one] |
| 234 nM | N#Cc1ccccc1/C=C/C=C/C(=O)N1CCN(C2CCCC2)CC1 [Example 2, 2-[5-(4-Cyclopentyl-piperazin-1-yl)-5-oxo-penta-1,3-dienyl]-benzonitrile] |
| 229 nM | O=C(/C=C/C=C/c1ccccc1Cl)N1CCN(C2CCCC2)CC1 [Example 9, 5-(2-Chloro-phenyl)-1-(4-cyclopentyl-piperazin-1-yl)-penta-2,4-dien-1-one] |
| 69.2 nM | O=C(/C=C/C=C/c1ccccc1[N+](=O)[O-])N1CCN(C2CCCC2)CC1 [Example 18, 1-(4-Cyclopentyl-piperazin-1-yl)-5-(2-nitro-phenyl)-penta-2,4-dien-1-one] |
| 316 nM | N#Cc1ccccc1/C=C/C=C/C(=O)N1CCN(c2ccccn2)CC1 [Example 1, 2-[5-Oxo-5-(4-pyridin-2-yl-piperazin-1-yl)-penta-1,3-dienyl]-benzonitrile] |
| 58.9 nM | O=C(/C=C/C=C/c1ccccc1[N+](=O)[O-])N1CCN(c2ccccc2)CC1 [Example 16, 5-(2-Nitro-phenyl)-1-(4-phenyl-piperazin-1-yl)-penta-2,4-dien-1-one] |
